Measured values published in PubChem BioAssay AID1259342 (Broad Institute, 2017).
The source made the active and inactive calls.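 The calls were made as follows: active = fitted half-maximal inhibitory concentration AC50 at most ten times the top concentration tested; inconclusive = flat fit with 30 to 70% inhibition, or unusable fit; inactive = AC50 above ten times the top concentration.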

Target: E3 ubiquitin-protein ligase TRIM62 (Homo sapiens) (UniProt Q9BVG3)
Experiment: inhibitors of TRIM62-driven CARD9 ubiquitylation, dose response, CARD9-TRIM62 disruptor project, biochemical, ubiquitin ELISA, AlphaLISA TUBE (AID 1259342);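 as to AC50: potency is for inhibitors that reduce CARD9 ubiquitylation signal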
Conditions: TRIM62-mediated CARD9 ubiquitylation, AlphaLISA TUBE detection

E3 ubiquitin-protein ligase TRIM62 (Homo sapiens), sequence (Q9BVG3 whole entry, looked up): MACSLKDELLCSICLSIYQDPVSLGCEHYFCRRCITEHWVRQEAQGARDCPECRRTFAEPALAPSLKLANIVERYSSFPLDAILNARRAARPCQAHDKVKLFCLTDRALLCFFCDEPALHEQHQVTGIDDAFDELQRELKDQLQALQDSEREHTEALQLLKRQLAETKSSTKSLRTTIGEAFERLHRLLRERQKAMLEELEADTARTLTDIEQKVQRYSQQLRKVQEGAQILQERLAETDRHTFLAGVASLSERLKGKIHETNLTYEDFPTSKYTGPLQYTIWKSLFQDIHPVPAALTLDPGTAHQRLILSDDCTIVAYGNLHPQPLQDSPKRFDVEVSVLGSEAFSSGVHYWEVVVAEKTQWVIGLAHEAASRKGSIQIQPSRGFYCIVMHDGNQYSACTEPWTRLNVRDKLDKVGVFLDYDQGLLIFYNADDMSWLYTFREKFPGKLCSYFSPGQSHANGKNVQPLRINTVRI

Compound	AC50
Cc1noc(CN(C)C(=O)c2cc(-c3ccco3)nc3c(C)c(Cl)ccc23)n1	49.2 µM
N#Cc1c(NC(=O)CSc2nc3ccccc3o2)sc2c1CCC2	74.1 µM
Nc1cc2c(cc1O)CCCC2	49.4 µM
O=C(O)C1Oc2cc3ccccc3cc2O1	3.02 µM
O=[N+]([O-])c1ccc2nn(Cc3ccccc3)cc2c1	> 160 µM (inactive)
CC(=O)c1cccc(OCC(=O)N(C)CC(=O)NCc2ccco2)c1	1.35 µM
CCCC(=O)NCc1ccc2c(c1)cc(C)n2C	> 160 µM (inactive)
Cc1ccc(C(=O)Nc2cnc(N3CCC(C(N)=O)(N4CCCCC4)CC3)c(C(=O)O)c2)cc1	9.21 µM
O=C1c2ccccc2-c2nc3ccccc3nc21	> 160 µM (inactive)
O=C(O)c1ccc2nc(-c3ccco3)c(-c3ccco3)nc2c1	11.8 µM
NC(=O)C1(N2CCCCC2)CCN(c2ncc(NC(=O)c3cccc(Cl)c3)cc2C(=O)O)CC1	14.2 µM
C=CC(=O)N1CCCC2(CCN(CCN3CCCC3)C2=O)C1 (stereo not given)	50.8 µM
C(=C\c1ccco1)/c1nc2ccccc2[nH]1	29 µM
CCC1c2ccc(C)n2CCN1C(=O)Nc1ccccc1C(=O)OC (stereo not given)	72.5 µM
C[C@H](CO)N1C[C@H](C)[C@@H](CN(C)CC2CCCCC2)OCCCC[C@H](C)Oc2ccc(NS(C)(=O)=O)cc2C1=O	> 160 µM (inactive)
Cc1ccc(C)n1NC(=O)c1ccccc1O	13.5 µM
O=c1oc(-c2ccccc2)nc2sc3c(c12)CCC3	> 160 µM (inactive)

Compound	AC50
CC1=CCC(C(=O)O)C(C(=O)NC2CCCCC2)C1 (stereo not given)	47.4 µM
N#Cc1c(N)oc(-c2ccco2)c1-c1ccco1	29.6 µM
O=C(COc1cccnc1[N+](=O)[O-])c1ccc(Cl)s1	26.2 µM
O=C(Nc1nccs1)c1cc(-c2ccco2)nc2ccccc12	15.7 µM
O=C(COC(=O)c1ccc(S(=O)(=O)NCc2ccco2)cc1)Nc1ccc(Cl)cn1	26.9 µM
CC(=O)c1sc2nc(-c3ccco3)ccc2c1N	24.5 µM
O=C(O)COc1ccc(-n2cccc2)cc1	14.7 µM
O=C(Cc1ccc(S(=O)(=O)N2CCOCC2)s1)Nc1nc2c(s1)CCCC2	26 µM
O=C(COC(=O)CCC(=O)c1cccs1)NCc1ccco1	16.6 µM
CCc1nc(OCc2ccco2)c2sc3nc4c(cc3c2n1)COC(C)(C)C4	> 160 µM (inactive)
O=C(O)CCc1ccc(-c2cccs2)n1NC(=O)c1ccco1	63.5 µM
O=C(Nc1nc(-c2ccco2)c(-c2ccco2)s1)c1ccco1	4.63 µM
O=C(O)Cc1c[nH]c2cccc(O)c12	0.921 µM
CC(C)(C)c1ccc(-c2nc(C#N)c(NCc3ccncc3)o2)cc1	22.3 µM
CC(C)C(CC(=O)NCc1ccco1)c1ccco1 (stereo not given)	5.47 µM
Cc1cccc(NC(=O)Cc2coc3ccc4ccccc4c23)n1	70 µM
O=C(Cn1c(=O)cc(C(=O)N2CCc3ccccc3C2)c2ccccc21)NCc1ccc2c(c1)OCO2	11.8 µM

Same assay, conditions: TRIM62-mediated CARD9 ubiquitylation, AlphaLISA TUBE detection; at 38 µM (top of the series)

Compound	activity change, negative = inhibition
O=C(NCCc1ccco1)c1ccc(OCc2cn3ccccc3n2)cc1	inactive
Cc1ccc(C)n1Nc1nc(O)cs1	inactive
CCCCCn1c(NC(=O)c2ccco2)c(C(=O)OCC)c2nc3ccccc3nc21	inactive

Same assay, conditions: TRIM62-mediated CARD9 ubiquitylation, AlphaLISA TUBE detection; at 80 µM (top of the series)

Compound	activity change, negative = inhibition
CCOC(=O)c1ccc(-c2ccc(C3CC(=O)Nc4cc5c(cc43)OCCO5)o2)cc1 (stereo not given)	inactive
CN(C)c1ccc(CN2C[C@H]3CC[C@@H]2CN(C(=O)c2ccncc2)C3)cn1	inactive
CC(CCc1ccco1)N(C)S(=O)(=O)c1ccc2[nH]c(=O)ccc2c1 (stereo not given)	inactive
O=C(NCc1ccco1)c1ccc(S(=O)(=O)N2CCOCC2)cc1	inactive
Cc1c(/C=C/c2nc3ccccc3c(=O)n2-c2ccccn2)c2ccccc2n1C	inactive
O=C(NCCc1ccccc1)c1cc2cccnc2n(Cc2ccccc2)c1=O	inactive
O=C(O)c1ccccc1SC1CC(=O)N(Cc2ccccc2)C1=O (stereo not given)	inactive
COc1ccc(-c2nc(SCC(=O)N3CCN(c4ccccc4OC)CC3)n[nH]2)cc1	inactive
Clc1ccc2nc(CN3CCCCCC3)cn2c1	inactive
O=C(NCc1cccnc1)c1ccccc1-c1nc(-c2ccccc2)no1	inactive
O=C(O)COCC(=O)NCc1ccco1	inactive
CCN1CCOC(=O)C1CC(=O)Nc1cccc(C)c1 (stereo not given)	inactive
O=C(COC(=O)c1cc(-c2ccco2)nc2ccccc12)NCc1ccc2c(c1)OCO2	inactive
CN(C)C(CN=C1NS(=O)(=O)c2ccccc21)c1ccco1 (stereo not given)	inactive
O=C(Nc1nnc(-c2ccco2)s1)c1ccccc1	inactive
COc1ccc(Nc2nc(-c3nnc(-c4ccc(F)cc4)o3)nc3ccccc23)cc1Cl	inactive
Cc1ccc(C(=O)Nc2ccc(N3CCC(C(N)=O)(N4CCCCC4)CC3)c(C(=O)O)c2)cc1	inactive
N#Cc1c2c(c(NCc3ccco3)n3c1nc1ccccc13)CCC2	inactive
Cc1ncnc(N2CCC(c3nccn3Cc3cccnc3)CC2)c1C	inactive

Compound	activity change, negative = inhibition
CCCc1cc(C(=O)N2CC[C@H]3CNC[C@H]32)n(C)n1	inactive
Cc1[nH]c2ccc(Cl)cc2c(=O)c1CN1CCCC1	inactive
O=C(NCc1ccco1)[C@@H]1CSC2c3ccccc3C(=O)N21 (stereo not given in full)	inactive
N#Cc1sc2nc(-c3ccccc3)cc(-c3ccco3)c2c1N	inactive
CS(=O)(=O)N1CCN(c2ccc([N+](=O)[O-])c(SCc3ccco3)c2)CC1	inactive
COCCC(=O)N1CCCC2(CCN(CCN3CCCC3)C2=O)C1 (stereo not given)	inactive
O=C1CC2(CCN(C(=O)Nc3ccccc3)CC2)CN1Cc1ccc(Cl)cc1	inactive
CCc1oc2ccccc2c1C(=O)CCN1CCCCC1	inactive
O=C(Nc1ccc2oc(-c3ccncc3)nc2c1)c1ccc2c(c1)OCO2	inactive
NC(=O)c1ccc(CN2C(=O)C3(CCNCC3)Nc3ccccc32)cc1	inactive
COc1ccc(-c2nnc(-c3nc(Nc4ccc(NC(C)=O)cc4)c4ccccc4n3)o2)cc1	inactive
O=C(NC1(C(F)(F)F)Oc2ccc(Cl)cc2O1)N1CCC2(CC1)OCCO2 (stereo not given)	inactive
CS(=O)(=O)c1ccc2ccn(O)c2c1	inactive
Cc1ccc(C2CC(=O)C3=C(C2)Nc2ccccc2NC3c2cccnc2)cc1 (stereo not given)	inactive
O=[N+]([O-])c1c(NCCCO)cc(SCc2ccco2)c2nonc12	inactive
Cc1scc(C(=O)NCc2ccco2)c1-c1ccccc1	inactive
O=[N+]([O-])c1cccc(-c2nnc3ccc4ccccc4n23)c1	inactive
COC[C@]1(O)CCN(C(=O)CCN(C)S(C)(=O)=O)CC1(C)C	inactive
O=C(O)c1cc(-c2ccco2)nc2ccccc12	inactive
